Here are results for 1 substance from patent US10080779B2, “Method for increasing the expression of anti-microbial peptides by keratinocytes comprising administering a composition comprising IL-17, TNF-alpha and OSM” (Universite D'Angers, priority 2004, dated 2018).

The test system of series [1] is normal human keratinocytes (NHEK). Description: Cytokine cocktails on S100A7, hBD2/4, KRT10 mRNA in NHEK (RT-Q-PCR). The following applies: NHEK 24 hrs, 1 ng/ml each. The series is classed as cell-based. As for the experimental part:
Quantitative real time PCR was carried out using the LightCycler-FastStart DNA Master^PLUS SYBR Green I kit (Roche, Mannheim, Germany). The reaction components were 1× FastStart DNA Master^PLUS SYBR Green I and 0.5 μM of forward and reverse primers for S100A7 (forward 5′-[…]-3′ (SEQ ID No: 9) and reverse 5′-[…]-3′ (SEQ ID No: 10)), S100A8 (Pattyn, Speleman et al. 2003), S100A9 (forward 5′-[…]-3′ (SEQ ID No: 11) and reverse 5′-[…]-3′ (SEQ ID No: 12)), hBD2/4 (forward 5′-[…]-3′ (SEQ ID No: 13) and reverse 5′-[…]-3′ (SEQ ID No: 14)), KRT10 (forward 5′-[…]-3′ (SEQ ID No: 15) and reverse 5′-[…]-3′ (SEQ ID No: 16)), and hydroxymethyl-bilane synthase (HMBS) as a housekeeping gene (Vandesompele, De Preter et al. 2002). After cDNA fluorescent quantification using propidium iodide, 250 ng, 25 ng and 2.5 ng of cDNA were added as PCR template in the LightCycler glass capillaries. The cycling conditions comprised a 10 min polymerase activation at 95° C. and 50 cycles at 95° C. for 10 s, 64° C. for 5 s and 72° C. for 18 s with a single fluorescence measurement. […] A mathematical model was used to determine the relative quantification of target genes compared to HMBS reference gene (Pfaffl 2001).
To that aim, confluent normal human keratinocytes (NHEK) were treated for 24 hrs with the indicated mix of cytokines (each cytokine at 1 ng/ml final concentration). Total RNA was extracted, reverse-transcribed and the expression of the selected genes was analyzed by real-time PCR as described.

Series [2] relates to NHEK. Description: cDNA macroarrays analysis of 36 cytokines on 154 genes in NHEK. The series is classed as cell-based, human. The following applies: 10 ng/ml, 24 h. As for the experimental part:
The comparison of the effects of 36 different cytokines on the expression of 154 genes of potential interest for skin physiology was performed using home-made cDNA macroarrays analysis. After cytokine stimulation, total RNA was extracted using TRIzoI® Reagent (Invitrogen life Technologies) and conventional 33P-cDNA target synthesis and hybridization were performed (Boniface et al, 2007). Genes were considered regulated if expression levels differed more than 3-fold relative to untreated control and 3-fold relative to mean background noise.

The test system of series [3] is NHEK. Description: Cytokine measurement by ELISA in NHEK culture supernatants. Format: cell-based, human. Particulars: 10 ng/ml, 96 h. As to the method: (§1) NHEK were obtained as previously described, from surgical samples of healthy breast skin (Boniface et al, 2005). NHEK were cultured to 80% of confluence and then starved for 24 h in Keratinocyte SFM without addition of growth factors before stimulation. Cells were stimulated with or without 10 ng/ml of recombinant IL-17A, OSM, TNFα, IL-22 and IL-1α alone or in combination (R&D systems Europe, Lille, France) during 24 h for mRNA quantification or 48 h to 96 h for protein quantification.
Levels of BD2, BD3 and CXCL8 were determined using Human ELISA development kit (Peprotech), and CXCL1 and CXCL5 with DuoSet reagents (R&D Systems Europe).
Background: In an ELISA, binding on a coated surface is turned into a signal by an enzyme label.

The subject of series [4] is NHEK. Description: RT-QPCR of antimicrobial peptide and chemokine genes in NHEK. The series is classed as cell-based, human. The following applies: 10 ng/ml, 24 h. As for the experimental part: as §1
NHEK and skin total RNA were isolated and reverse-transcribed as previously described (Boniface et al, 2005). Quantitative real time PCR was carried using the LightCycler-FastStart DNA Master SYBR® Green I kit on LightCycler 480 (Roche Diagnostics, Meylan, France). The reaction components were 1×DNA Master Mix, and 0.5 μM of HPLC purified sense and anti-sense oligonucleotides purchased from Eurogentec (Eurogentec France, Angers, France), designed using Primer3 software. Samples were normalized to three independent control housekeeping genes (G3PDH, RPL13A or ACTB for human samples and G3PDH, HMBS or B2m for mouse samples) and reported according to the ΔΔCT method as RNA fold increase: 2^ΔΔCT=2^ΔCT sample−ΔCT eference. For comparison of normal skin and psoriatic skin the REST 2008 software was used (Pfaffl et al., 2002).

In series [5] the test system is NHEK. Description: S100A7 Western blotting in NHEK (Example 13). Particulars: 10 ng/ml, 96 h. The series is classed as cell-based, human. As for the experimental part:
After 96 h of stimulation, NHEK lysis was performed as previously described (Boniface et al, 2005). After separation by SDS-PAGE, proteins were transferred to nitrocellulose membranes (Amersham pharmacia biotech) by electroblotting. S100A7 was detected with mouse anti-human S100A7 mAb (Imgenex, San Diego, Calif., USA) and sheep anti-mouse IgG peroxidase-conjugated polyclonal Ab (Amersham Biosciences). Bound Ab were detected by chemiluminescence (ECL Hyperfilm and ECL Plus Reagen, Amersham Biosciences Ltd).
Background: A western blot detects proteins with antibodies after separation by electrophoresis.

Series [6] has as its system NHEK. Description: Keratinocyte differentiation marker (KDM) mRNA in NHEK (RT-PCR). Format: cell-based, human. The following applies: 24 h. As to the method: (§2) Normal human epidermal keratinocytes (NHEK) were obtained as previously described, from surgical samples of healthy breast skin (Boniface et al, 2005). NHEK were cultured to 80% of confluence allowing the expression of a large panel of keratinocyte differentiation markers, and then starved for 24 h in Keratinocyte SFM containing 0.03 mM Ca^2+ (Invitrogen Life Technologies, Cergy Pontoise, France) before stimulation. Confluent differentiated cells were stimulated with or without recombinant IL-17A, OSM, TNFα, IL-22 and IL-1α alone at maximum effective concentrations (reported previously around 10 ng/ml (Boniface et al, 2005 and Boniface et al, 2007)) or in combination (R&D systems Europe, Lille, France) during 2 h to 72 h for mRNA quantification. RHE were generated on polycarbonate culture inserts, from surgical samples of paediatric foreskins as previously described (Guenou et al., 2009). RHE were stimulated with or without recombinant IL-17A, OSM, TNFα, IL-22 and IL-1α alone or in combination, with or without a Janus protein Tyrosine Kinases (JAKs) inhibitor 10 μM (Calbiochem, 420099), during 24 h for mRNA quantification or during 72 h for immunohistological analysis.
NHEK, RHE and murine skin total RNA were isolated using NucleoSpin® RNA II kit (Macherey-Nagel, Hoerdt, France) and reverse-transcribed with SuperScript® II Reverse Transcriptase (Invitrogen Life Technologies) according to the manufacturer's instructions. Quantitative real time PCR was carried out using the LightCycler-FastStart DNA Master SYBR® Green I kit on LightCycler 480 (Roche Diagnostics, Meylan, France). The reaction components were 1×DNA Master Mix, and 0.5 μM of HPLC purified sense and anti-sense oligonucleotides purchased from Eurogentec (Eurogentec France, Angers, France), designed using Primer3 software. The stability of the housekeeping gene expression has been assessed by using GeNorm algorithm. […] Thus samples were normalized to G3PDH housekeeping gene and reported according to the ΔΔCT method as RNA fold increase: 2^ΔΔCT=2^ΔCT sample−ΔCT reference.

The test system of another series is RHE. Description: RHE histology and immunohistochemistry (Example 14). The series is classed as cell-based, human. Particulars: single cytokines, 72 h. As to the method: as §2
RHE were washed and fixed with formaldehyde solution. Fixed tissues were dehydrated with increasing ethanol concentrations, embedded in paraffin and sections were carried out using a microtome (4 μm thickness). The sections were deparaffinised, washed and incubated with hydrogen peroxide. The sections were incubated with anti-CK10 (SantaCruz, SC-23877), anti-LOR (Eurogentec, PRB-145P), anti-FLG (SantaCruz, SC-66192), anti-IVL (Biomedical Technologies, BT-601), anti-S100A7 (Clinisciences, IMG-409A) and then detected using a biotin-conjugated secondary antibody (Vector, RTU vectastain universal quick kit, PK-7800). After peroxidase-conjugated streptavidine (Vector, RTU vectastain universal quick kit, PK-7800) and peroxidase substrate addition (Dako, Substrat hyper-sensible AEC+), nuclei were counter-stained using a solution of hematoxylin. Sections were observed using a NIKON E400 microscope. The images were captured using a NIKON DS-Ril and processed with NIS-Elements 3.10 software.

Consider IL-1α: recombinant cytokine IL-1α, for which, in series [1], the “Effect of depleting the cytokine from the mix on activity of the complete cocktail” value is reported as “did not significantly decrease the activity”. For the same substance, the “Number of genes (of 154) whose expression is modified with at least a three fold increase or decrease” value in the series with NHEK [2] is “at least five genes”. Further, in the series with NHEK [3], the “BD2 production, single cytokines” value is given as “most potent inducers”; the BD3 production entry is given as “significant increase”; the “CXCL1, CXCL5, CXCL8 production, single cytokines” value is listed as “most effective”. Besides, the “Number of the 21 chemokine and antimicrobial peptide genes upregulated” value in the series with NHEK [4] is on record as 19. Besides, the “S100A7 expression in NHEK (western blotting)” value with NHEK [5] is “most potent inducer”. For the same substance, in the series with NHEK [6], the “Number of KDM whose control mRNA expression is partially restored on removal of the cytokine from M5” value worked out at 3 KDM. Besides, the “mRNA expression of CK1, DSG1, DSC1, FLG, CLSP, LOR and FABPS” value with NHEK [6] (single cytokines 10 ng/ml) was “minor activities”. Also, the “CK10, LOR and FLG expression (immunohistology)” value with RHE (RHE) is recorded as “did not exhibit any activity”. In addition, the RHE histology result in the series with RHE is recorded as “does not modify RHE histology”.
